Source: patent US20240034729A9, “HETEROCYCLIC COMPOUND, INTERMEDIATE, PREPARATION METHOD THEREFOR AND APPLICATION THEREOF” (WUHAN LL SCIENCE AND TECHNOLOGY DEVELOPMENT CO., LTD., priority 2018, published 2024)
Where two headings read alike, the source gives them in different places.

Key:
[1] = In vitro metabolic stability, rat liver microsome; type: in vitro ADME; conditions: liver microsomes, 1 mg/mL liver microsome protein, 37° C., NA = essentially not metabolized, read-out: T1/2 in rat liver microsome
Experimental: (§1) The in vitro metabolic stability of the compounds disclosed herein was determined through incubation of liver microsomes of various species. […] At each time point, 100 μL of the reaction mixture was added into a centrifuge tube containing 400 μL of internal standard working solution (containing a 200 ng/mL solution of dexamethasone, diclofenac, tolbutamide and labetalol in acetonitrile) precooled at 0° C. so as to terminate the reaction, and the mixture was then centrifuged at 10,000 g for 10 min at 4° C. The supernatant was collected for LC-MS assay so as to obtain the values of in vitro metabolic half-life of the test compounds in liver microsomes of various species.

[2] = In vitro metabolic stability, human liver microsome; type: in vitro ADME; conditions: liver microsomes, 1 mg/mL liver microsome protein, 37° C., NA = essentially not metabolized, read-out: T1/2 in human liver microsome
Experimental: as §1

[3] = In vitro metabolic stability, guinea pig liver microsome; type: in vitro ADME; conditions: liver microsomes, 1 mg/mL liver microsome protein, 37° C., NA = essentially not metabolized, read-out: T1/2 in guinea pig liver microsome
Experimental: The in vitro metabolic stability of the compounds disclosed herein was determined through incubation of liver microsomes of various species. A proper amount of test compound was added into a liver microsome reaction system (1 mg/mL liver microsome protein, 25 U/mL glucose-6 phosphate dehydrogenase, 1 mM NADP, 6 mM D-glucose 6-phosphate and 5 mM MgCl2), and then the mixture was incubated in a water bath kettle at 37° C. to start the reaction. At each time point, 100 μL of the reaction mixture was added into a centrifuge tube containing 400 μL of internal standard working solution (containing a 200 ng/mL solution of dexamethasone, diclofenac, tolbutamide and labetalol in acetonitrile) precooled at 0° C. so as to terminate the reaction, and the mixture was then centrifuged at 10,000 g for 10 min at 4° C. The supernatant was collected for LC-MS assay so as to obtain the values of in vitro metabolic half-life of the test compounds in liver microsomes of various species.

[4] = In vitro cytotoxicity assay, CCK-8 method; type: cell-based; conditions: human, HepG2 cells
Experimental: In vitro cytotoxicity assay for the compounds disclosed herein was performed in HepG2 cells using the CCK-8 method. HepG2 cells (Beina Bio) in the logarithmic growth phase were collected, the concentration of cell suspension was adjusted, and then the cells were plated on a 96-well cell culture plate at 50,000 cells/well. The cells were then incubated overnight in a cell incubator of 5% […] at 37° C., and after 80-90% cell confluence was achieved, test compounds or vehicle (DMSO) at various concentration gradients were added after medium change. The plate was incubated in a cell incubator of 5% […] at 37° C. for 48 h. After the treatment, the medium in the plate was discarded. The plate was washed twice with PBS, added with CCK-8 working solution (Beyotime) at 100 μL per well, and then incubated at 37° C. for 1.5 h away from light. Absorbance at OD450nm was measured for each well on a microplate reader, and CC50 value of each compound was analyzed and calculated.

[5] = molecular target: hP2X3 (human purinergic P2X receptor subtype 3) (Homo sapiens (Human), UniProt P56373); test: FLIPR calcium assay, hP2X3 expressed in HEK293 cells; type: cell-based; conditions: read-out: P2X3 IC50
[6] = molecular target: hP2X2/3 (heterodimeric receptors formed by human purinergic P2X receptors subtype 2 and subtype 3) (Homo sapiens (Human), UniProt P56373+Q9UBL9); test: FLIPR calcium assay, hP2X2/3 expressed in HEK293 cells (P2X2/3 receptor selectivity); type: cell-based; conditions: for IC50: HEK293 cells expressing hP2X2/3, agonist BZ-ATP 5 μM, unit inferred
Sequence of hP2X2/3 (heterodimeric receptors formed by human purinergic P2X receptors subtype 2 and subtype 3) (P56373 whole entry): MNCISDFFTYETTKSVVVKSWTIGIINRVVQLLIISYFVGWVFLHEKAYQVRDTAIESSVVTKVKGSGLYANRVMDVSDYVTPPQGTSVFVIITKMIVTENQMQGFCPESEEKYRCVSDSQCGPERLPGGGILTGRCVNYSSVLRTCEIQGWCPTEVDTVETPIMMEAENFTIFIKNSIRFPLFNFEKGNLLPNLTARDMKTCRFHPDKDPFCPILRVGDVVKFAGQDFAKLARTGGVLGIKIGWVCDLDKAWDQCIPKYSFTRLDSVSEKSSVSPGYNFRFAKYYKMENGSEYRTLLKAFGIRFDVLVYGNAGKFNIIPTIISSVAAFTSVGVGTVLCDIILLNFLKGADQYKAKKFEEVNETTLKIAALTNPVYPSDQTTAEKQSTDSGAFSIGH
Sequence of hP2X2/3 (heterodimeric receptors formed by human purinergic P2X receptors subtype 2 and subtype 3) (Q9UBL9 whole entry): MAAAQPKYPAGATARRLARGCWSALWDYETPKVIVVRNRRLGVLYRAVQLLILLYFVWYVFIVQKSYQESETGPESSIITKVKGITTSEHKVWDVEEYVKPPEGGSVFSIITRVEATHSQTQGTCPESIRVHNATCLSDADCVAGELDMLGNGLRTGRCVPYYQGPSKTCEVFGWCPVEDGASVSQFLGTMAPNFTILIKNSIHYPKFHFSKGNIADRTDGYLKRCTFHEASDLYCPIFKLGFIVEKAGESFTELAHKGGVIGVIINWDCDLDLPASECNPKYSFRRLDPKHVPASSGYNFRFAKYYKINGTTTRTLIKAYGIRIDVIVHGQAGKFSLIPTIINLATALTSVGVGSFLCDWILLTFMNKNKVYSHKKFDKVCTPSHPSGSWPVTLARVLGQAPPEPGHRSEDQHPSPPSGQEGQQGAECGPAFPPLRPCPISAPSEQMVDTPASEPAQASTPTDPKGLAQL

Sequence of hP2X3 (human purinergic P2X receptor subtype 3) (P56373 whole entry): as the sequence (P56373 whole entry) above

| IC50 ([5]; HEK293 cells expressing hP2X3, agonist BZ-ATP 2.5 μM, class symbols) | Structure (SMILES) | half-life [1] | half-life [2] | half-life [3] | CC50 at 48 h [4] | IC50 [5] | Folds of selectivity [6] | IC50 [6] |
| --- | --- | --- | --- | --- | --- | --- | --- | --- |
|  | COC(=O)Nc1cc(F)c(-c2nc3cc(C)ccn3c2C[C@H]2CN(C(=O)OC)CCO2)c(F)c1 [Compound 3, methyl (S)-2-((2-(2,6-difluoro-4-(methoxycarbonylamino)phenyl)-7-methylimidazo[1,2-a]pyridin-3-yl)-methyl)morpholine-4-carboxylate] | 0.479 h | 4.34 h | 0.842 h | 59.3 µM | 0.01 to 0.05 µM | A (key: A: folds of selectivity >1000; B: 200< folds of selectivity ≤1000; C: folds of selectivity ≤200) | > 60 µM |
|  | COC(=O)N1CCO[C@@H](Cc2c(-c3c(F)cc(-c4ccc[nH]4)cc3F)nc3cc(C)ccn23)C1 [Compound 4, methyl (S)-2-((2-(2,6-difluoro-4-(1H-pyrrol-2-yl)phenyl)-7-methylimidazo[1,2-a]pyridin-3-yl)methyl)morpholine-4-carboxylate] | 0.0818 h | 1.02 h | 0.073 h | 13.2 µM | < 0.01 µM | A (key: A: folds of selectivity >1000; B: 200< folds of selectivity ≤1000; C: folds of selectivity ≤200) | 14.3 µM |
|  | COC(=O)N1CCO[C@@H](Cc2c(-c3c(F)cc(-c4cccn4C)cc3F)nc3cc(C)ccn23)C1 [Compound 13, methyl (S)-2-((2-(2,6-difluoro-4-(1-methyl-1H-pyrrol-2-yl)phenyl)-7-methylimidazo[1,2-a]pyridin-3-yl)methyl)morpholine-4-carboxylate] | 0.0373 h | 1.03 h | 0.0375 h | 66.5 µM |  |  |  |
|  | COC(=O)N1CCO[C@@H](Cc2c(-c3c(F)cc(-c4cc[nH]n4)cc3F)nc3cc(C)ccn23)C1 [Compound 15, methyl (S)-2-((2-(2,6-difluoro-4-(1H-pyrazol-3-yl)phenyl)-7-methylimidazo[1,2-a]pyridin-3-yl)methyl)morpholine-4-carboxylate] | 0.423 h | 3.18 h | 0.275 h | 52.6 µM | < 0.01 µM | B (key: A: folds of selectivity >1000; B: 200< folds of selectivity ≤1000; C: folds of selectivity ≤200) | 21.6 µM |
|  | COC(=O)N1CCO[C@@H](Cc2c(-c3c(F)cc(-c4ccccn4)cc3F)nc3cc(C)ccn23)C1 [Compound 17, methyl (S)-2-((2-(2,6-difluoro-4-(pyridin-2-yl)phenyl)-7-methylimidazo[1,2-a]pyridin-3-yl)methyl)morpholine-4-carboxylate] | 0.323 h | 16.6 h | 0.143 h | 51 µM | 0.01 to 0.05 µM | B (key: A: folds of selectivity >1000; B: 200< folds of selectivity ≤1000; C: folds of selectivity ≤200) | 29.8 µM |
| 0.05 to 0.2 µM | COC(=O)N1CCO[C@@H](Cc2c(-c3c(F)cc(N4C(=O)CCC4=O)cc3F)nc3cc(C)ccn23)C1 [Compound 26, methyl (S)-2-((2-(4-(2,5-dioxopyrrolidin-1-yl)-2,6-difluorophenyl)-7-methylimidazo[1,2-a]pyridin-3-yl)methyl)morpholine-4-carboxylate] | 1.35 h | 4.22 h | 2.13 h | > 100 µM |  |  |  |
|  | COC(=O)N1CCO[C@@H](Cc2c(-c3cnc(-n4cccn4)cc3C)nc3cc(C)ccn23)C1 [Compound 168, methyl (S)-2-((7-methyl-2-(4-methyl-6-(1H-pyrazol-1-yl)pyridin-3-yl)imidazo[1,2-a]pyridin-3-yl)methyl)morpholine-4-carboxylate] | 0.96 h | 8.71 h | 0.487 h | > 100 µM | 0.01 to 0.05 µM | A (key: A: folds of selectivity >1000; B: 200< folds of selectivity ≤1000; C: folds of selectivity ≤200) | > 60 µM |
|  | COC(=O)N1CCO[C@@H](Cc2c(-c3c(F)cc(N4CC=CC4=O)cc3F)nc3cc(C)ccn23)C1 [Compound 169, methyl (S)-2-((2-(2,6-difluoro-4-(2-carbonyl-2,5-dihydro-1H-pyrrol-1-yl)phenyl)-7-methylimidazo[1,2-a]pyridin-3-yl)methyl)morpholine-4-carboxylate] | 0.591 h | 13.8 h | 2.74 h | > 100 µM |  | A (key: A: folds of selectivity >1000; B: 200< folds of selectivity ≤1000; C: folds of selectivity ≤200) | > 60 µM |
|  | COC(=O)N1CCO[C@@H](Cc2c(-c3c(F)cc(S(N)(=O)=O)cc3F)nc3cc(C)ccn23)C1 [Compound 171, methyl (S)-2-((2-(2,6-difluoro-4-sulfamoylphenyl)-7-methylimidazo[1,2-a]pyridin-3-yl)methyl)morpholine-4-carboxylate] | 0.141 h | 8.72 h | 2.33 h | 200 µM | 0.0021 µM | 45975 | 36.8 µM |
|  | COC(=O)N1CCO[C@@H](Cc2c(-c3ccc(S(N)(=O)=O)cc3Cl)nc3cc(C)ccn23)C1 [Compound 176, methyl (S)-2-((2-(2-chloro-4-sulfamoylphenyl)-7-methylimidazo[1,2-a]pyridin-3-yl)methyl)morpholine-4-carboxylate] | 0.0602 h | 3.93 h | 1.02 h | > 200 µM | 0.0075 µM |  |  |
|  | COC(=O)N1CCO[C@@H](Cc2c(-c3cc(F)c(S(N)(=O)=O)cc3Cl)nc3cc(Cl)ccn23)C1 [Compound 181, methyl (S)-2-((7-chloro-2-(2-chloro-5-fluoro-4-sulfamoylphenyl)imidazo[1,2-a]pyridin-3-yl)methyl)morpholine-4-carboxylate] | 3.13 h | 23.3 h | 3.91 h | 138 µM | 0.0018 µM |  |  |
|  | COC(=O)N1CCO[C@@H](Cc2c(-c3c(F)cc(S(N)(=O)=O)cc3F)nc3cc(C)c(F)cn23)C1 [Compound 182, methyl (S)-2-((2-(2,6-difluoro-4-sulfamoylphenyl)-6-fluoro-7-methylimidazo[1,2-a]pyridin-3-yl)methyl)morpholine-4-carboxylate] | 0.182 h | 3.62 h | 1.02 h | > 200 µM | 0.0035 µM |  |  |
|  | COC(=O)N1CCO[C@@H](Cc2c(-c3ccc(S(N)(=O)=O)cc3C)nc3cc(C)ccn23)C1 [Compound 184, methyl (S)-2-((7-methyl-2-(2-methyl-4-sulfamoylphenyl)imidazo[1,2-a]pyridin-3-yl)methyl)morpholine-4-carboxylate] | 0.0943 h | 406 h | 2.89 h | > 200 µM | 0.0056 µM |  |  |
